# Target: WIL-FL (Homo sapiens, UniProt P01721)
# Assay: Unlabeled LC Protease Sensitivity Assay (proteinase K)
# Type: biochemical
# Details: small molecule 10 μM, WIL-FL 5 μM, proteinase K 50 nM, 2 hours at 37° C.
# Method in brief: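 WIL-FL light chain (5 μM) in PBS pH 7.4 + 0.02% Pluronic F-127 digested with proteinase K (50 nM) for 2 h at 37 °C with 10 μM compound (1% DMSO). Intact WIL-FL quantified by size-exclusion UPLC (A280). Fold protection = (A_compound−A_vehicle)/(A_no_protease−A_vehicle) from peak areas.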
row,SMILES,Protection (fold protection of LC from protease)
1,"CCN(CC)c1ccc2c(C)c(CCN3C(=O)NC4(CCN(c5ncnc6[nH]cnc56)CC4)C3=O)c(=O)oc2c1 [Compound 188, 3-(2-(7-(diethylamino)-4-methyl-2-oxo-2H-chromen-3-yl)ethyl)-8-(9H-purin-6-yl)-1,3,8-triazaspiro[4.5]decane-2,4-dione]",C (C ≥ 0.6)
2,"CCN(CC)c1ccc2c(C)c(CCOC(=O)N3CC4(C3)CS(=O)(=O)C4)c(=O)oc2c1 [Compound 110, 2-(7-(diethylamino)-4-methyl-2-oxo-2H-chromen-3-yl)ethyl 2-thia-6-azaspiro[3.3]heptane-6-carboxylate 2,2-dioxide]",B (3 ≤ B < 0.6)
3,"CCN(CC)c1ccc2c(C)c(CCOC(=O)NCc3cccc(-c4cn[nH]c4)c3)c(=O)oc2c1 [Compound 164, 2-(7-(diethylamino)-4-methyl-2-oxo-2H-chromen-3-yl)ethyl (3-(1H-pyrazol-4-yl)benzyl)carbamate]",C (C ≥ 0.6)
4,"CCN(CC)c1ccc2c(C)c(CCOC(=O)N3CCN(c4ccccn4)CC3)c(=O)oc2c1 [Compound 114, 2-(7-(diethylamino)-4-methyl-2-oxo-2H-chromen-3-yl)ethyl 4-(pyridin-2-yl)piperazine-1-carboxylate]",A (A < 0.3))
5,CCN(CC)c1ccc2c(C)c(CCC(=O)NCCc3ccc(F)cc3)c(=O)oc2c1 [Compound 73],A (A < 0.3))
6,"CCN(CC)c1ccc2c(C)c(CCNC(=O)NCc3cccnc3)c(=O)oc2c1 [Compound 98, 1-(2-(7-(diethylamino)-4-methyl-2-oxo-2H-chromen-3-yl)ethyl)-3-(pyridin-3-ylmethyl)urea]",C (C ≥ 0.6)
7,"CCN(CC)c1ccc2c(C)c(CCOC(=O)NCc3cccc(-c4ccc[nH]c4=O)c3)c(=O)oc2c1 [Compound 163, 2-(7-(diethylamino)-4-methyl-2-oxo-2H-chromen-3-yl)ethyl (3-(2-oxo-1,2-dihydropyridin-3-yl)benzyl)carbamate]",C (C ≥ 0.6)
8,"CCN(CC)c1ccc2c(C)c(CCOC(=O)NCc3ccc4cc[nH]c(=O)c4c3)c(=O)oc2c1 [Compound 143, 2-(7-(diethylamino)-4-methyl-2-oxo-2H-chromen-3-yl)ethyl ((1-oxo-1,2-dihydroisoquinolin-7-yl)methyl)carbamate]",B (3 ≤ B < 0.6)
9,"CCN(CC)c1ccc2c(C)c(CCN3C(=O)CNC3=O)c(=O)oc2c1 [Compound 130, 3-(2-(7-(diethylamino)-4-methyl-2-oxo-2H-chromen-3-yl)ethyl)imidazolidine-2,4-dione]",B (3 ≤ B < 0.6)
10,"CCN(CC)c1ccc2c(C)c(CCOC(=O)NCc3cccc(-c4ccccc4OS(=O)(=O)F)c3)c(=O)oc2c1 [Compound 219, 3′-((((2-(7-(diethylamino)-4-methyl-2-oxo-2H-chromen-3-yl)ethoxy)carbonyl)amino)methyl)-[1,1′-biphenyl]-2-yl sulfurofluoridate]",A (A < 0.3))
11,"CCN(CC)c1ccc2c(C)c(CC(=O)NC)c(=O)oc2c1 [Compound 60, 2-(7-(diethylamino)-4-methyl-2-oxo-2H-chromen-3-yl)-N-methylacetamide]",A (A < 0.3))
12,"CCN(CC)c1ccc2c(C)c(CCN3C(=O)NC4(CCN(C(=O)c5ccc(C(N)=O)cc5)C4)C3=O)c(=O)oc2c1 (centres unmarked) [Compound 199, 4-(3-(2-(7-(diethylamino)-4-methyl-2-oxo-2H-chromen-3-yl)ethyl)-2,4-dioxo-1,3,7-triazaspiro[4.4]nonane-7-carbonyl)benzamide]",B (3 ≤ B < 0.6)
13,"Cc1cc(=O)oc2cc(OC(C)c3ccccc3F)ccc12 (centres unmarked) [Compound 49, 7-(1-(2-fluorophenyl)ethoxy)-4-methyl-2H-chromen-2-one]",A (A < 0.3))
14,"CCN(CC)c1ccc2c(C)c(CCOC(=O)NCc3cccc(-c4nc[nH]c4C)c3)c(=O)oc2c1 [Compound 160, 2-(7-(diethylamino)-4-methyl-2-oxo-2H-chromen-3-yl)ethyl (3-(5-methyl-1H-imidazol-4-yl)benzyl)carbamate]",C (C ≥ 0.6)
15,"CCN(CC)c1ccc2c(C)c(CC(=O)O)c(=O)oc2c1 [Compound 54, 2-(7-(diethylamino)-4-methyl-2-oxo-2H-chromen-3-yl)acetic acid]",A (A < 0.3))
16,"Cc1cc(=O)oc2cc(OC(c3ccccc3)c3ccccc3)ccc12 [Compound 42, 7-(benzhydryloxy)-4-methyl-2H-chromen-2-one]",A (A < 0.3))
17,"CCN(CC)c1ccc2c(C)c(CCOC(=O)NCc3ccncn3)c(=O)oc2c1 [Compound 90, 2-(7-(diethylamino)-4-methyl-2-oxo-2H-chromen-3-yl)ethyl (pyrimidin-4-ylmethyl)carbamate]",A (A < 0.3))
18,"CCN(CC)c1ccc2c(C)c(CCOC(=O)Nc3ccc(NC(C)=O)cn3)c(=O)oc2c1 [Compound 103, 2-(7-(diethylamino)-4-methyl-2-oxo-2H-chromen-3-yl)ethyl (5-acetamidopyridin-2-yl)carbamate]",B (3 ≤ B < 0.6)
19,"CCN(CC)c1ccc2c(C)c(CCN3C(=O)NC4(CCN(c5ncccn5)C4)C3=O)c(=O)oc2c1 (centres unmarked) [Compound 194, 3-(2-(7-(diethylamino)-4-methyl-2-oxo-2H-chromen-3-yl)ethyl)-7-(pyrimidin-2-yl)-1,3,7-triazaspiro[4.4]nonane-2,4-dione]",C (C ≥ 0.6)
20,"CCN(CC)c1ccc2c(C)c(CCN3C(=O)NC4(CCN(S(=O)(=O)c5cccnc5)C4)C3=O)c(=O)oc2c1 (centres unmarked) [Compound 202, 3-(2-(7-(diethylamino)-4-methyl-2-oxo-2H-chromen-3-yl)ethyl)-7-(pyridin-3-ylsulfonyl)-1,3,7-triazaspiro[4.4]nonane-2,4-dione]",C (C ≥ 0.6)

# Continued, values first:
row,Protection (fold protection of LC from protease),SMILES
1,B (3 ≤ B < 0.6),"CCN(CC)c1ccc2c(C)c(CCN3C(=O)NC4(CCN(C(=O)c5ccncn5)CC4)C3=O)c(=O)oc2c1 [Compound 208, 3-(2-(7-(diethylamino)-4-methyl-2-oxo-2H-chromen-3-yl)ethyl)-8-(pyrimidine-4-carbonyl)-1,3,8-triazaspiro[4.5]decane-2,4-dione]"
2,A (A < 0.3)),"CCCN(C)c1ccc2c(C)cc(=O)oc2c1 [Compound 253, 4-methyl-7-(methyl(propyl)amino)-2H-chromen-2-one]"
3,A (A < 0.3)),"CCN(CC)c1ccc2c(CCCOC(=O)NCc3ccccc3)cc(=O)oc2c1 [Compound 300, 3-(7-(diethylamino)-2-oxo-2H-chromen-4-yl)propyl benzylcarbamate]"
4,A (A < 0.3)),"Cc1cc(=O)oc2cc(C(=O)Nc3ccnc4ccccc34)ccc12 [Compound 234, 4-methyl-2-oxo-N-(quinolin-4-yl)-2H-chromene-7-carboxamide]"
5,A (A < 0.3)),"Cc1cc(=O)oc2cc(N(CC3CC3)CC3CC3)ccc12 [Compound 245, 7-(bis(cyclopropylmethyl)amino)-4-methyl-2H-chromen-2-one]"
6,A (A < 0.3)),"C=CCN(CC=C)c1ccc2c(C)cc(=O)oc2c1 [Compound 231, 7-(diallylamino)-4-methyl-2H-chromen-2-one]"
7,A (A < 0.3)),"CCN(CC)c1ccc2c(C)c(CCOC(=O)NCc3cncc(-c4ccc[nH]c4=O)c3)c(=O)oc2c1 [Compound 220, 2-(7-(diethylamino)-4-methyl-2-oxo-2H-chromen-3-yl)ethyl ((2′-oxo-1′,2′-dihydro-[3,3′-bipyridin]-5-yl)methyl)carbamate]"
8,A (A < 0.3)),"Cc1cc(=O)oc2cc(N(C)C)ccc12 [Compound 266, 7-(dimethylamino)-4-methyl-2H-chromen-2-one]"
9,A (A < 0.3)),"C#CCN(CC(=C)C)c1ccc2c(C)cc(=O)oc2c1 [Compound 261, 4-methyl-7-((2-methylallyl)(prop-2-yn-1-yl)amino)-2H-chromen-2-one]"
10,C (C ≥ 0.6),"CCN(CC)c1ccc2c(C)c(CCN3C(=O)NC4(CCN(c5nccn6ccnc56)CC4)C3=O)c(=O)oc2c1 [Compound 215, 3-(2-(7-(diethylamino)-4-methyl-2-oxo-2H-chromen-3-yl)ethyl)-8-(imidazo[1,2-a]pyrazin-8-yl)-1,3,8-triazaspiro[4.5]decane-2,4-dione]"
11,A (A < 0.3)),"Cc1cc(=O)oc2cc(C(=O)NCc3ccncc3)ccc12 [Compound 228, 4-methyl-2-oxo-N-(pyridin-4-ylmethyl)-2H-chromene-7-carboxamide]"
12,B (3 ≤ B < 0.6),"CCN(CC)c1ccc2c(C)c(CCNC(=O)NCc3cc4ccccc4cn3)c(=O)oc2c1 [Compound 295, 1-(2-(7-(diethylamino)-4-methyl-2-oxo-2H-chromen-3-yl)ethyl)-3-(isoquinolin-3-ylmethyl)urea]"
13,A (A < 0.3)),"CCN(CC)c1ccc2c(CCCOC(=O)NCc3cccc(S(N)(=O)=O)c3)cc(=O)oc2c1 [Compound 303, 3-(7-(diethylamino)-2-oxo-2H-chromen-4-yl)propyl (3-sulfamoylbenzyl)carbamate]"
14,A (A < 0.3)),"Cc1cc(=O)oc2cc(N(C)CC3CC3)ccc12 [Compound 255, 7-((cyclopropylmethyl)(methyl)amino)-4-methyl-2H-chromen-2-one]"
15,A (A < 0.3)),"Cc1cc(=O)oc2cc(C#N)ccc12 [Compound 224, 4-methyl-2-oxo-2H-chromene-7-carbonitrile]"

# From patent US11945806B2, “Stabilization of amyloidogenic immunoglobulin light chains” (The Scripps Research Institute, priority 2019, dated 2024)
